Results reported in PubChem BioAssay (NCI).
“And” between values parts separate entries of the source, which are not always exact repeats. Identical values can stand only once.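 Briefly, cells in 96-well plates were exposed to five compound concentrations for 48 h, and endpoints were estimated by linear interpolation. GI50 marks 50% less growth. TGI is the concentration that stops growth completely.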

Legend:
Experiment in all cases: inhibition of tumour cell growth, NCI panel, 48 h
[1] = system: A549 NSCLC
[2] = system: HCT-116 colon
[3] = system: LOX IMVI melanoma
[4] = system: SNB-19 CNS
[5] = system: SF-268 CNS
[6] = system: SK-MEL-2 melanoma
[7] = system: OVCAR-5 ovarian
[8] = system: OVCAR-3 ovarian
[9] = system: SR leukemia
[10] = system: CAKI-1 renal

CCN(CC)CC(O)c1cc(-c2ccc(Cl)cc2)nc2cc(Cl)ccc12 (stereo not drawn)
GI50 [1]: 1.9 µM | TGI [1]: 3.63 µM | GI50 [2]: 1.65 µM | TGI [2]: 3.15 µM | GI50 [3]: 1.24 µM | TGI [3]: 2.51 µM | GI50 [4]: 4.34 µM | TGI [4]: 16 µM | GI50 [5]: 2.69 µM | TGI [5]: 8.06 µM | GI50 [6]: 1.92 µM | TGI [6]: 3.63 µM | GI50 [7]: 2.11 µM | TGI [7]: 5.58 µM | GI50 [8]: 1.92 µM | TGI [8]: 4.05 µM | GI50 [9]: 1.69 µM | TGI [9]: 3.52 µM | GI50 [10]: 1.21 µM | TGI [10]: 2.64 µM

COc1cccc(/C=C2\CCc3ccccc3C2=O)c1
GI50 [1]: 20.1 µM | TGI [1]: 60.1 µM | GI50 [2]: 9.26 µM | TGI [2]: 25.3 µM | GI50 [3]: 12.9 µM | TGI [3]: 36.8 µM | GI50 [4]: 12.4 µM | TGI [4]: 26.7 µM | GI50 [5]: 14.8 µM | TGI [5]: 29.1 µM | GI50 [6]: 12.9 µM | TGI [6]: 28.2 µM | GI50 [7]: 17.6 µM | TGI [7]: 42.7 µM | GI50 [8]: 12.9 µM | TGI [8]: 26.2 µM | GI50 [9]: 3.1 µM | TGI [9]: 15.1 µM | GI50 [10]: 11.3 µM | TGI [10]: 36.4 µM

O=C(NCCCl)NCc1ccccc1
TGI [1]: > 100 µM | TGI [2]: > 100 µM | TGI [3]: > 100 µM | TGI [4]: > 100 µM | TGI [5]: > 100 µM | TGI [6]: > 100 µM | TGI [7]: > 100 µM | TGI [8]: > 100 µM | TGI [9]: > 100 µM | TGI [10]: > 100 µM

COc1ccc2c(c1)CC1N(C)CCC13CCCCC23 (stereo not drawn)
TGI [1]: > 100 µM | TGI [2]: > 100 µM | TGI [3]: > 100 µM | TGI [4]: > 100 µM | TGI [5]: > 100 µM | TGI [6]: > 100 µM | TGI [7]: > 100 µM | TGI [8]: > 100 µM | TGI [9]: > 100 µM | TGI [10]: > 100 µM

CC(C)(N)C(=O)N[C@@H]1C(=O)N2[C@@H]1SC(C)(C)[C@@H]2C(=O)O
TGI [1]: > 100 µM | TGI [2]: > 100 µM | TGI [3]: > 100 µM | TGI [4]: > 100 µM | TGI [5]: > 100 µM | TGI [6]: > 100 µM | TGI [7]: > 100 µM | TGI [8]: > 100 µM | TGI [9]: > 100 µM | TGI [10]: > 100 µM

Nc1nc(-c2ccc3ccccc3c2)cc(-c2cc(-c3ccc4ccccc4c3)nc(N)n2)n1
TGI [1]: > 100 µM | TGI [2]: > 100 µM | TGI [3]: > 100 µM | TGI [4]: > 100 µM | TGI [5]: > 100 µM | TGI [6]: > 100 µM | TGI [7]: > 100 µM | TGI [8]: > 100 µM | TGI [9]: > 100 µM | TGI [10]: > 100 µM

NCCCCCCCCCn1c2c(c3ccccc3c1=O)C(=O)c1ccccc1-2
GI50 [1]: 9.75 µM | TGI [1]: > 50 µM | GI50 [2]: 6.5 µM | TGI [2]: 17.2 µM | GI50 [3]: 7.38 µM | TGI [3]: 23.6 µM | GI50 [4]: 9.27 µM | TGI [4]: 22.6 µM | GI50 [5]: 11.8 µM | TGI [5]: 31.5 µM | GI50 [6]: 15.5 µM | TGI [6]: > 50 µM | GI50 [7]: 9.6 µM | TGI [7]: 19.5 µM | GI50 [8]: 9.46 µM | TGI [8]: 18.8 µM | GI50 [9]: 1.55 µM | TGI [9]: > 50 µM | GI50 [10]: 9.15 µM | TGI [10]: 18.8 µM

O=C(NC(Cc1ccccc1)C(=O)CCl)OCc1ccccc1 (stereo not drawn)
GI50 [1]: 13.9 µM | TGI [1]: 33.9 µM and 36.2 µM | GI50 [2]: 1.65 µM | TGI [2]: 3.32 µM and 26.5 µM | GI50 [3]: 1.3 µM | TGI [3]: 3.12 µM and 7.49 µM | TGI [4]: 25.3 µM and 25.1 µM | GI50 [5]: 4.36 µM | TGI [5]: 16.3 µM and 26.3 µM | GI50 [6]: 1.96 µM | TGI [6]: 4.89 µM and 22 µM | GI50 [7]: 5.64 µM | TGI [7]: 18.5 µM and 24.2 µM | GI50 [8]: 3.65 µM | TGI [8]: 11.8 µM and 18.7 µM | GI50 [9]: 2.23 µM | TGI [9]: > 100 µM | GI50 [10]: 7.52 µM | TGI [10]: 21.2 µM and 17.3 µM

COC(=O)[C@H](C)[C@@H]1CC[C@](C)(CCC2=C(C)CCCC2(C)C)OO1
TGI [1]: > 25 µM | TGI [2]: > 25 µM | TGI [3]: > 25 µM | TGI [4]: > 25 µM | TGI [5]: > 25 µM | TGI [6]: > 25 µM | TGI [7]: > 25 µM | TGI [8]: > 25 µM | TGI [9]: > 25 µM | TGI [10]: > 25 µM

CC/C(=C(/CC)c1ccc(O)cc1)c1ccc(O)cc1
GI50 [1]: 4.59 µM | TGI [1]: 20.5 µM | GI50 [2]: 4.92 µM | TGI [2]: 15.9 µM | GI50 [3]: 5.75 µM | TGI [3]: 19.4 µM | GI50 [4]: 10.6 µM | TGI [4]: 25.5 µM | GI50 [5]: 5.5 µM | TGI [5]: 20.8 µM | GI50 [6]: 9.23 µM | TGI [6]: 26.7 µM | GI50 [7]: 14.1 µM | TGI [7]: 30.1 µM | GI50 [8]: 2.72 µM | TGI [8]: 7 µM | GI50 [9]: 3.98 µM | TGI [9]: 29.6 µM | GI50 [10]: 4.22 µM | TGI [10]: 27.8 µM

[Au+].c1c[n-]cn1.c1ccc([PH+](c2ccccc2)c2ccccc2)cc1
GI50 [1]: 11.7 µM | TGI [1]: 42.6 µM | GI50 [2]: 5.19 µM | TGI [2]: 14.6 µM | GI50 [3]: 4.03 µM | TGI [3]: 15.2 µM | GI50 [4]: 7.28 µM | TGI [4]: 18 µM | GI50 [5]: 3.32 µM | TGI [5]: 28.3 µM | GI50 [6]: 2.53 µM | TGI [6]: 8.06 µM | GI50 [7]: 20.9 µM | TGI [7]: 42.3 µM | GI50 [8]: 2.43 µM | TGI [8]: 5.2 µM | GI50 [9]: 2.54 µM | TGI [9]: 9.48 µM | GI50 [10]: 4.69 µM | TGI [10]: 16.4 µM

Cc1cc(Cl)ccc1Nc1nc2c(s1)C(=O)c1ccccc1C2=O
TGI [1]: 21.4 µM | TGI [2]: 5.25 µM | TGI [3]: 3.12 µM | TGI [4]: 16.3 µM | TGI [5]: 11.3 µM | TGI [6]: 22.7 µM | TGI [7]: 8.61 µM | TGI [8]: 4.6 µM | TGI [9]: 10.8 µM | TGI [10]: 20.3 µM

Cc1ccc(S(=O)(=O)OC2CSSCC2OS(=O)(=O)c2ccc(C)cc2)cc1 (stereo not drawn)
TGI [1]: 31.9 µM | TGI [2]: 26 µM | TGI [3]: 28.5 µM | TGI [4]: 31.7 µM | TGI [5]: 31.9 µM | TGI [6]: 29.1 µM | TGI [7]: 38 µM | TGI [8]: 26.2 µM | TGI [9]: 38.8 µM | TGI [10]: 26.1 µM

NC(CSC1(c2ccc(Cl)cc2)c2ccccc2-c2ccccc21)C(=O)O (stereo not drawn)
TGI [1]: > 100 µM | TGI [2]: 34.6 µM | TGI [3]: 30.3 µM | TGI [4]: 52.8 µM | TGI [5]: 50.2 µM | TGI [6]: 41.8 µM | TGI [7]: 79.5 µM | TGI [8]: > 100 µM | TGI [9]: 46.9 µM | TGI [10]: > 100 µM

O=[N+]([O-])c1cccc([I+]c2ccccc2)c1
GI50 [1]: 3.46 µM | TGI [1]: 24.1 µM | GI50 [2]: 7.05 µM | TGI [2]: 24.2 µM | GI50 [3]: 6.21 µM | TGI [3]: 20.1 µM | GI50 [4]: 13.4 µM | TGI [4]: 26.5 µM | GI50 [5]: 7.3 µM | TGI [5]: 21.2 µM | GI50 [6]: 17.8 µM | TGI [6]: 35.2 µM | GI50 [7]: 17.7 µM | TGI [7]: 38.4 µM | GI50 [8]: 11.3 µM | TGI [8]: 26.8 µM | GI50 [9]: 3.16 µM | TGI [9]: 25.9 µM | GI50 [10]: 3.42 µM | TGI [10]: 49 µM

COC(=O)Cc1nn2c(nc1=O)sc1ccc3ccccc3c12
TGI [1]: > 100 µM | TGI [2]: > 100 µM | TGI [3]: > 100 µM | TGI [4]: > 100 µM | TGI [6]: > 100 µM | TGI [7]: > 100 µM | TGI [8]: > 100 µM | TGI [9]: > 100 µM | TGI [10]: > 100 µM
